Laboratory results from paper PMC10702189, “Tetrazine Glycoconjugate for Pretargeted Positron Emission Tomography Imaging of trans-Cyclooctene-Functionalized Molecular Spherical Nucleic Acids” (ACS Omega, 2023).

Columns and labels:
[1] = Ex vivo biodistribution in healthy Balb/cAnNrj mice
Experimental: Animal studies were approved by the national Project Authorization Board in Finland (licenses: ESAVI/12132/04.10.07/2017 and ESAVI/8648/2020) and were carried out in compliance with EU Directive 2010/EU/63 on the protection of animals used for scientific purposes. Healthy female Balb/cAnNrj mice (9–14 weeks old, 19 weeks old for fasting studies) were used for experiments with [^18F]FDG-Tz. Female Rj:Athymic-Foxn1^nu/nu mice (8–10 weeks old) bearing subcutaneous HER2-expressing HCC1954 tumors were used for pretargeted and control preclicked experiments with [^18F]TCO-MSNA, detailed information for the mice preparation was described earlier.[59] Animals were housed in individually ventilated cages under a 12 h light/dark cycle with ad libitum access to water and food unless otherwise stated. Animals were anesthetized with isoflurane (induction 4–5%, maintenance 1.5–2.5%, 0.4 L/min O2) and sacrificed by cervical dislocation after applying cardiac puncture for blood collection.
For [^18F]FDG-Tz ex vivo evaluation, the mice were sacrificed at 15 (n = 6), 30 (n = 4), and 60 min (n = 2) postinjection. [^18F]FDG-Tz distribution at 15 min postinjection was also studied in animals after fasting (n = 3, 4 h fasting prior to injection, water available ad libitum). Radiolabeled compound was administrated via the tail vein (1.8–11.4 MBq in 50–170 μL). For all experiments involving MSNA ex vivo measurements were performed after 60 min PET/CT imaging.
After sacrifice, tissue samples from organs of interest were dissected and weighed. Radioactivity was measured with a gamma counter (Triathler 3″; Hidex, Turku, Finland); the percentage injected radioactivity dose per gram of tissue (%ID/g) was calculated, corrected with the remaining radioactivity in the cannula, tail, and the syringe and decay-corrected to the time of injection.

[2] = Stability in end product formulation by analytical radio-HPLC; assay type: physicochemical; details: for 6 h from EOS, end product formulation (PBS, ethanol ≤10%) at r.t.
Experimental: Chemical and radiochemical purity and stability of precursors and radiotracers were measured with analytical HPLC (Hitachi LaChrom Elite, Schaumburg, USA). Jupiter Proteo reversed-phase C18 column (4 μm, 250 mm × 4.6 mm) was used at a flow rate of 1 mL/min. HPLC eluents were A, 0.1% trifluoroacetic acid (TFA, v/v) in water; B, 0.1% TFA in acetonitrile. The gradient changed from 15% to 35% in 0–15 min. For radiolabeled MSNA quality control, SEC at a flow rate of 1 mL/min was used (Waters Protein-Pak 33SW (7.5 × 300 mm), eluent 0.1 M KH2PO4, pH 7.0).
The cyclotron produced [^18F]fluoride, dissolved in ^18O-enriched water (Rotem Industries Limited, Arava, Israel), was trapped in a Sep-Pak QMA Plus Light cartridge (Waters, preconditioned with 10 mL of 0.5 M K2CO3, 15 mL of water). [^18F]F^– was eluted from the cartridge with 2 mL of QMA-eluent solution (stock solution contains 237.5 mg of Kryptofix 2.2.2, 42.5 mg of potassium carbonate, 2 mL of Milli-Q water in 50 mL of acetonitrile). The reaction mixture was evaporated to dryness with Ar gas flow (70 mL/min for 10 min, and then 80 mL/min for 5–10 min more) under heating at 120 °C. […] The stability of [^18F]FDG-Tz was analyzed by analytical radio-HPLC up to 6 h after EOS in the end product formulation at r.t.

## O=C(CCON=C[C@H]([18F])[C@@H](O)[C@H](O)[C@H](O)CO)NCc1ccc(-c2nncnn2)cc1 [[^18F]FDG-Tz]
[1]; 15 min postinjection, 4 h fasting
  Biodistribution difference between fasted and nonfasted animals: no statistically significant difference
[1]; 60 min after i.v. injection
  Organ accumulation in awake versus isoflurane anesthetized animals: trend of lower accumulation
[1]; i.v., 60 min postinjection
  Blood radioactivity: 0.9 ± 0.3 %ID/g
  Brain uptake: 0.08 ± 0.03 %ID/g
  Gallbladder radioactivity: 7.0 ± 0.7 %ID/g
  Kidneys radioactivity: 1.2 ± 0.4 %ID/g
  Liver radioactivity: 3.2 ± 1.0 %ID/g
  Tibia bone radioactivity (defluorination): 0.26 ± 0.04 %ID/g
[2]
  Radiochemical purity retained (stability): > 98%
